Assay results taken from patent US11555012B2 (Nimbus Artemis, Inc., priority 2018, dated 2023).

Each molecule was assayed against ACL (Homo sapiens (Human), UniProt P53396) (assay: ADP-Glo Assay).
ACL, sequence (P53396 other isoform, or with tags, fused parts or gaps isoform P53396-2): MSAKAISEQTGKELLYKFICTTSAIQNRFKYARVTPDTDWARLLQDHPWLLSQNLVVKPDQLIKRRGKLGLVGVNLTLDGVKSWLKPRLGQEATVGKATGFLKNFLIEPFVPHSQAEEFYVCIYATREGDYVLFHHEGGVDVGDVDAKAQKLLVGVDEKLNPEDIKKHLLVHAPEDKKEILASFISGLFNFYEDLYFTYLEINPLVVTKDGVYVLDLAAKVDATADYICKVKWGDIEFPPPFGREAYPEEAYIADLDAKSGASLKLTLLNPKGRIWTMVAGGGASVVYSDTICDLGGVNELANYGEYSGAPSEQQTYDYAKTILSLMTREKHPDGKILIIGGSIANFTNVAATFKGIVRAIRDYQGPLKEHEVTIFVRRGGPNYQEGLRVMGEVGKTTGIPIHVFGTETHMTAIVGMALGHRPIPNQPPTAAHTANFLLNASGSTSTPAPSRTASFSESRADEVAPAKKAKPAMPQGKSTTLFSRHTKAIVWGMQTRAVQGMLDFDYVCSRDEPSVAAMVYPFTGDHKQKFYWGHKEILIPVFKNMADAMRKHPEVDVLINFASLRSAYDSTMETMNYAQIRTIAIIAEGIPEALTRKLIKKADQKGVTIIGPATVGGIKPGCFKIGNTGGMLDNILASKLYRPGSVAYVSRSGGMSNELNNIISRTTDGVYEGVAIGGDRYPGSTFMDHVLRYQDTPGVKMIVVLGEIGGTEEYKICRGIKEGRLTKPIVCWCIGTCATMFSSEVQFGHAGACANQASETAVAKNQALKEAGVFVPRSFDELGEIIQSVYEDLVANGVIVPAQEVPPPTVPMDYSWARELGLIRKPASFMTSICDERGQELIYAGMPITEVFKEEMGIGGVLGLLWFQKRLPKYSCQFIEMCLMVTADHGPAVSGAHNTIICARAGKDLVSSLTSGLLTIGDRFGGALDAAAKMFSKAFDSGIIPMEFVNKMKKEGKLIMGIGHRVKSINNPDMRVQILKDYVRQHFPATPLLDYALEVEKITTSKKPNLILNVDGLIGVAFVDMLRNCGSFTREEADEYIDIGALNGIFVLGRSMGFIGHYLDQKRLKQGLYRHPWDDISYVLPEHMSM

| SMILES | IC50 [nM] |
| --- | --- |
| CCC(=O)Oc1c(Cl)cc(C(=O)OC)cc1S(=O)(=O)Nc1cc(-c2ccccc2)ccc1F [I-120, Methyl 3-chloro-5-([4-fluoro-[1,1-biphenyl]-3-yl]sulfamoyl)-4-(propanoyloxy)benzoate] | 50 to 500 |
| CCC(=O)Oc1ccccc1S(=O)(=O)Nc1cc(-c2ccccc2)ccc1F [I-121, 2-[(2-fluoro-5-phenylphenyl)sulfamoyl]phenyl Propanoate] | 500 to 20000 |
| O=S(=O)(Nc1cc(-c2ccccc2)ccc1F)c1cc(Cl)cc(Cl)c1OC1COC1 [I-122, 3,5-dichloro-N-(4-fluoro-[1,1′-biphenyl]-3-yl)-2-(oxetan-3-yloxy)benzenesulfonamide] | 500 to 20000 |
| O=S(=O)(NCc1cc(-c2ccccc2)ccc1F)c1cc(Cl)cc(Cl)c1O [I-125, 3,5-dichloro-N-((4-fluoro-[1,1′-biphenyl]-3-yl)methyl)-2-hydroxybenzenesulfonamide] | 500 to 20000 |
| Cc1c(C(=O)O)cc(Cl)c(O)c1S(=O)(=O)Nc1cc(-c2ccccc2)c(F)cc1F [I-132, 5-chloro-3-([4,6-difluoro-[1,1-biphenyl]-3-yl]sulfamoyl)-4-hydroxy-2-methylbenzoic Acid] | 500 to 20000 |
| O=C(O)c1cc(Cl)cc(S(=O)(=O)Nc2cc(-c3ccccc3)c(F)cc2F)c1 [I-147, 3-chloro-5-(N-(4,6-difluoro-[1,1′-biphenyl]-3-yl)sulfamoyl)benzoic Acid] | 500 to 20000 |
| O=C(Nc1cc(-c2ccccc2)c(F)cc1F)c1cc(C(=O)N2CCCC2)cc(Cl)c1O [I-150, 3-chloro-N-(4,6-difluoro-[1,1′-biphenyl]-3-yl)-2-hydroxy-5-(pyrrolidine-1-carbonyl)benzamide] | 500 to 20000 |
| NC(=O)COc1c(Cl)cc(Cl)cc1S(=O)(=O)Nc1cc(-c2ccccc2)ccc1F [I-151, 2-(2,4-dichloro-6-(N-(4-fluoro-[1,1′-biphenyl]-3-yl)sulfamoyl)phenoxy)acetamide] | 500 to 20000 |
| CNC(=O)COc1c(Cl)cc(Cl)cc1S(=O)(=O)Nc1cc(-c2ccccc2)ccc1F [I-152, 2-(2,4-dichloro-6-(N-(4-fluoro-[1,1′-biphenyl]-3-yl)sulfamoyl)phenoxy)-N-methylacetamide] | 500 to 20000 |
| O=C(COc1c(Cl)cc(Cl)cc1S(=O)(=O)Nc1cc(-c2ccccc2)ccc1F)N1CCC1 [I-153, 2-(2-(azetidin-1-yl)-2-oxoethoxy)-3,5-dichloro-N-(4-fluoro-[1,1′-biphenyl]-3-yl)benzenesulfonamide] | 500 to 20000 |
| COc1c(Br)cc(C(=O)N2CCC2)cc1S(=O)(=O)Nc1cc(-c2ccccc2)ccc1F [I-154, 5-(azetidine-1-carbonyl)-3-bromo-N-(4-fluoro-[1,1′-biphenyl]-3-yl)-2-methoxybenzenesulfonamide] | 500 to 20000 |
| O=C(O)c1cc(Cl)c(O)c(C(=O)Nc2cc(-c3ccccc3)c(F)cc2F)c1 [I-155, 3-chloro-5-((4,6-difluoro-[1,1′-biphenyl]-3-yl)carbamoyl)-4-hydroxybenzoic Acid] | 500 to 20000 |
| O=S(=O)(Nc1cc(-c2ccccc2)c(F)cc1F)c1cc(Cl)ccc1F [I-156, 5-chloro-N-(4,6-difluoro-[1,1′-biphenyl]-3-yl)-2-fluorobenzenesulfonamide] | 500 to 20000 |
| CC(=O)NCCNC(=O)c1cc(Cl)c(O)c(S(=O)(=O)Nc2cc(-c3ccccc3)c(F)cc2F)c1 [I-161, N-(2-[[3-chloro-5-([4,6-difluoro-[1,1-biphenyl]-3-yl]sulfamoyl)-4-hydroxyphenyl]formamido]ethyl)acetamide] | 500 to 20000 |
| CC(C)Oc1ccc(F)cc1NS(=O)(=O)c1cc(Cl)cc(Cl)c1O [I-163] | 500 to 20000 |
| O=S(=O)(Nc1cc(-n2nnnc2C2CC2)ccc1F)c1cc(Cl)cc(Cl)c1O [I-164] | 500 to 20000 |
| CC(C)Cc1csc(NS(=O)(=O)c2cc(Cl)cc(Cl)c2O)c1C(=O)N1CCOCC1 [I-165] | 500 to 20000 |
| COc1ccc(CN(C)S(=O)(=O)c2cc(Cl)cc(Cl)c2O)cc1 [I-166] | 500 to 20000 |
| O=S(=O)(N[C@H]1C[C@H](c2ccc(F)cc2)C1)c1cc(Cl)cc(Cl)c1O [I-167] | 500 to 20000 |
| O=S(=O)(NCc1nc(-c2cccc(F)c2)no1)c1cc(Cl)cc(Cl)c1O [I-168] | 500 to 20000 |
